Consider twelve compounds from ChEMBL document CHEMBL4665842, “Sortase A-Inhibitory Coumarins from the Folk Medicinal Plant Poncirus trifoliata” (J Nat Prod, 2020).

The subject of assay [1] is Staphylococcus aureus. Kind of assay: Inhibition of Staphylococcus aureus Newman sortase A assessed as […] in fibrinogen-mediated cell clumping at 100 uM after 2 hrs.
Assay [2] deals with Staphylococcus aureus. Put plainly: Inhibition of Staphylococcus aureus Newman sortase A assessed as reduction in bacterial adherence to fibronectin-coated surfaces up to 4 times of IC50 concentration for every 30 mins for 2.5 hrs. The following applies: time hrs <=2.5.
The test system of assay [3] is Staphylococcus aureus. Kind of assay: Inhibition of Staphylococcus aureus Newman sortase A assessed as […] in fibrinogen-mediated cell clumping after 2 hrs. The following applies: dose microM 25-100, time 2.0 hrs.
The test system of assay [4] is Staphylococcus aureus. Put plainly: Antimicrobial activity against Staphylococcus aureus ATCC 6538p. Type of assay: functional.
Assay [5] in a line: Inhibition of recombinant Staphylococcus aureus ATCC 6538p sortase A using dabcyl-LPETG-edans as substrate incubated for 2 hrs by fluorometric method.

Structures are written as SMILES. Values after ≈ are worked out from the molar mass of the structure shown. Active and inactive are the calls of the source. The calls are words filed in the database; no cut-off is given here.

For the compound `CC(C)C(=O)Cc1c(OC[C@@H](O)C(C)(C)O)ccc2ccc(=O)oc12`, the fold change (FC) in the assay with Staphylococcus aureus [1] was over 2. In addition, in the assay on Staphylococcus aureus [2], the inhibition result is “Active”. For the same compound, in the assay with Staphylococcus aureus [3], the inhibition entry was “Dose-dependent effect”. This compound also registered an MIC against Staphylococcus aureus [4] of over 368 µM. Also, in assay [5], the IC50 was 34.5 µM.

For `C=C(C)[C@H](CC/C(C)=C/COc1ccc2ccc(=O)oc2c1)OO`, the fold change (FC) with Staphylococcus aureus [1] is over 2. Further, the inhibition result in the assay with Staphylococcus aureus [3] is “Dose-dependent effect”. The compound further showed an MIC against Staphylococcus aureus [4] of over 388 µM. In addition, the 50% inhibitory concentration (IC50) in assay [5] was determined as 23.5 µM.

In the assay on Staphylococcus aureus [4], `O=c1ccc2ccc(O)cc2o1` [UMBELLIFERONE] displayed a minimal inhibitory concentration (MIC) of over 790 µM.

On to `CC1(C)S[C@@H]2[C@H](NC(=O)[C@H](N)c3ccccc3)C(=O)N2[C@H]1C(=O)O` [AMPICILLIN], for which, in the assay with Staphylococcus aureus [4], inhibition of growth (MIC) required 0.18 µM (≈ 0.0629 µg/mL).

Turning to `COC(C)(C)[C@@H](O)Cc1c(OC[C@@H](O)C(C)(C)O)ccc2ccc(=O)oc12`, in the assay with Staphylococcus aureus [1], the fold change (FC) is over 2. In the assay on Staphylococcus aureus [2], the inhibition result was “Active”. Moreover, in the assay with Staphylococcus aureus [3], the inhibition result was “Dose-dependent effect”. The compound further displayed a minimum inhibitory concentration (MIC) in the assay with Staphylococcus aureus [4] of over 337 µM. Moreover, the IC50 in assay [5] was found to be 26.6 µM.

`CC(C)(O)[C@H](O)COc1c2ccoc2cc2oc(=O)ccc12` [OXYPEUCEDANIN HYDRATE] yielded an MIC against Staphylococcus aureus [4] of over 421 µM. In assay [5], the IC50 is 230 µM.

For `COC(C)(C)[C@H](O)COc1ccc2ccc(=O)oc2c1C[C@H](O)C(C)(C)O`, the minimal inhibitory concentration (MIC) in the assay on Staphylococcus aureus [4] was over 337 µM. In addition, the IC50 in assay [5] was 76 µM.

`O=C(O)/C=C/c1ccc(O)cc1` [COUMARIC ACID] showed an MIC with Staphylococcus aureus [4] of over 780 µM. Further, the IC50 in assay [5] is over 780 µM.

Consider `C/C(=C\COc1ccc2ccc(=O)oc2c1)C/C=C/C(C)(C)OO`, for which, in the assay with Staphylococcus aureus [1], the fold change (FC) is over 2. Besides, in the assay with Staphylococcus aureus [2], the inhibition result is “Active”. In addition, in the assay with Staphylococcus aureus [3], the inhibition result was “Dose-dependent effect”. Moreover, the MIC against Staphylococcus aureus [4] was over 388 µM. For the same compound, the half-inhibitory concentration (IC50) in assay [5] amounted to 19.1 µM.

Consider `CC(C)(O)[C@H](O)COc1ccc2ccc(=O)oc2c1C[C@H](O)C(C)(C)O`, for which the fold change (FC) in the assay with Staphylococcus aureus [1] was over 2. Further, the inhibition entry in the assay with Staphylococcus aureus [3] was “Dose-dependent effect”. Besides, the MIC with Staphylococcus aureus [4] was over 350 µM. The IC50 in assay [5] worked out at 47.2 µM.

In the assay on Staphylococcus aureus [4], `C=C(C)[C@H](O)COc1ccc2ccc(=O)oc2c1CC(=O)C(C)C` showed an MIC of over 388 µM. Moreover, the IC50 in assay [5] was found to be 112 µM.

`COC(C)(C)[C@H](O)COc1ccc2ccc(=O)oc2c1CC(=O)C(C)C`: in the assay on Staphylococcus aureus [4], the minimal inhibitory concentration (MIC) is over 353 µM. Further, in assay [5], the IC50 was 119 µM.
